Test results reported in patent US12662481B2, “Substituted 2-morpholinopyridine derivatives as ATR kinase inhibitors” (Repare Therapeutics Inc., priority 2019, dated 2026).
pIC50: −log10 of the molar value. Like-named read-outs stand apart in the source and are kept apart here.

Legend:
ATR/ATRIP = ATR/ATRIP (Homo sapiens, UniProt Q13535); assay: ATR/ATRIP enzymatic assay (AlphaScreen, phosphorylation of p53)
Method: Detection of ATR kinase activity utilized the AlphaScreen system to measure the phosphorylation of the substrate protein p53. […] Plates were incubated at room temperature in the dark for 4 hours and read on a BMG Polarstar using AlphaScreen dedicated filters. […] IC50 values were determined using a 4-parameter fit algorithm.

[1] = tested on: ATR (CHK1 phosphorylation at Ser345 in HeLa S3 cells); assay: ATR assay in HeLa S3 cells (CHK1 p-Ser345 AlphaScreen SureFire, gemcitabine); assay type: cell-based; conditions: HeLa S3 whole cell assay, 3.5 to 4 hours
Method: Media was then replaced by 20 μL per well Opti-MEM no phenol red and 5 μL of serial diluted compounds were added to the assay plate for a final DMSO concentration of 0.5%. […] The plate was incubated at 37° C., 5% CO2 for 3.5 to 4 hours.

[2] = Homo sapiens, gemcitabine 1.5 μM

ATR/ATRIP, sequence (Q13535 whole entry): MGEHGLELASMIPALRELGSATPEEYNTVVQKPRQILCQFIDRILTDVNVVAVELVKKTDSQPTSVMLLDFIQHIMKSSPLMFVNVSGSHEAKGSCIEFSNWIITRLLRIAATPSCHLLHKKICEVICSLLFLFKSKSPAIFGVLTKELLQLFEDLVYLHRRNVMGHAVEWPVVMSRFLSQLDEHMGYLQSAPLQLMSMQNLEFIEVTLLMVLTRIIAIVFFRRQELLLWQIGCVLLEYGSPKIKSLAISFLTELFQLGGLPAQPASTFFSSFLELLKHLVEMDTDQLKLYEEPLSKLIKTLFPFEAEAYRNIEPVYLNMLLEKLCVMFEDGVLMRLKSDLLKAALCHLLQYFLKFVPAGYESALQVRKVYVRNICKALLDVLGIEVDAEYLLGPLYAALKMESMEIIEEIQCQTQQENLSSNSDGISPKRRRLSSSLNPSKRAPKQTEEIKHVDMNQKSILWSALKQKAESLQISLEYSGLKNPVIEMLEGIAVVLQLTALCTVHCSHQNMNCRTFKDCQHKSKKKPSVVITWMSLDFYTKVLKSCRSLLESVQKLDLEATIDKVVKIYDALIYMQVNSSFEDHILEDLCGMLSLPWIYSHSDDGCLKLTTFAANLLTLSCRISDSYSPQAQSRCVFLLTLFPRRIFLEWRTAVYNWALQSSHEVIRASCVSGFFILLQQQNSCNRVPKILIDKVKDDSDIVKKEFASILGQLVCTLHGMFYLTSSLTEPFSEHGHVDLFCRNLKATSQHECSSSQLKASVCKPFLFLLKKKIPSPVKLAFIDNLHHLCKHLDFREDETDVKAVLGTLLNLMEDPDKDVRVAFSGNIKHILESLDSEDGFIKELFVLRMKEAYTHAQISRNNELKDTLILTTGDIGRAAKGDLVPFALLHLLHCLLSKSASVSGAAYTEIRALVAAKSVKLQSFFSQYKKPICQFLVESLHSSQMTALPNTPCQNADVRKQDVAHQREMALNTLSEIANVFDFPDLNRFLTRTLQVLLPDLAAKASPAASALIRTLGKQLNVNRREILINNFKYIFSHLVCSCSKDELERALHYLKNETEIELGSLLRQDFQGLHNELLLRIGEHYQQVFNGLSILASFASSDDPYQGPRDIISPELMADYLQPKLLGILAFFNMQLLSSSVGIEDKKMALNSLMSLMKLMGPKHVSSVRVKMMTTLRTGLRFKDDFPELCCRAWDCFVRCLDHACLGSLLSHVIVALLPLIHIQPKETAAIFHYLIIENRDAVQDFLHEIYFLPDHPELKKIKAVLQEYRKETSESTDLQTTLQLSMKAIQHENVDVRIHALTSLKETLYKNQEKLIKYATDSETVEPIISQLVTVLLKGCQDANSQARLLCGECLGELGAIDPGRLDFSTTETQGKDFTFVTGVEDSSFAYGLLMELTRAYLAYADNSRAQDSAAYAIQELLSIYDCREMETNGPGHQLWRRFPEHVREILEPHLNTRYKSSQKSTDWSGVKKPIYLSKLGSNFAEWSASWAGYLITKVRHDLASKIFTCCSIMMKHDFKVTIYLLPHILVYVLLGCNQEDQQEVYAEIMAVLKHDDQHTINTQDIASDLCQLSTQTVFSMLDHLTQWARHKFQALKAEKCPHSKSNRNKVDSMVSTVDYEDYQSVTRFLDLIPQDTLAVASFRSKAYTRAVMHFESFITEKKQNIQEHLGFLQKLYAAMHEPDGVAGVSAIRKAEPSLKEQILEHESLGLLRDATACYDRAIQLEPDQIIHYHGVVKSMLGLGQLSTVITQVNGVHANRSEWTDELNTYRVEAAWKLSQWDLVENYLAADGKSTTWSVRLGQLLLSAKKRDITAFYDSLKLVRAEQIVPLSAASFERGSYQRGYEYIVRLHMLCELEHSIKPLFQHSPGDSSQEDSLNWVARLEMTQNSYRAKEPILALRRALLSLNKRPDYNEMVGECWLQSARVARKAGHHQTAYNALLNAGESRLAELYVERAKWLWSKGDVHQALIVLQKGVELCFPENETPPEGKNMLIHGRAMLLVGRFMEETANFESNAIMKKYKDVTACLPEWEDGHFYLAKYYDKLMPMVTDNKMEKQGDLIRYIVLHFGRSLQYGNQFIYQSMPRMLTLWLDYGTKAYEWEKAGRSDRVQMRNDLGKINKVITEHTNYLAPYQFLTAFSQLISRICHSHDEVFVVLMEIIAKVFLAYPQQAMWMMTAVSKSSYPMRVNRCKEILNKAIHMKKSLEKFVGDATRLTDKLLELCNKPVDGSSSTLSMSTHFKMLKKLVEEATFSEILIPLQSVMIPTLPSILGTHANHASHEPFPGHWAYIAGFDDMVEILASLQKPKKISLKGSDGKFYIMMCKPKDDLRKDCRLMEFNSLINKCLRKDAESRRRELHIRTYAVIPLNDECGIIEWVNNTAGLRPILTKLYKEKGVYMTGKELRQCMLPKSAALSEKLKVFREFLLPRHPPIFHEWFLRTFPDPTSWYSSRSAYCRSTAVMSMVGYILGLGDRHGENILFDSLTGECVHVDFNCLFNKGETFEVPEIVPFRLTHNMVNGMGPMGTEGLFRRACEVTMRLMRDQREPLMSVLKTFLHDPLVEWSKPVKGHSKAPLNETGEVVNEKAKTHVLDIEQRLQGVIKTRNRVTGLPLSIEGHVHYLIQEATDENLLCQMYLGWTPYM
ATR/ATRIP, sequence (Q8WXE1 whole entry partner): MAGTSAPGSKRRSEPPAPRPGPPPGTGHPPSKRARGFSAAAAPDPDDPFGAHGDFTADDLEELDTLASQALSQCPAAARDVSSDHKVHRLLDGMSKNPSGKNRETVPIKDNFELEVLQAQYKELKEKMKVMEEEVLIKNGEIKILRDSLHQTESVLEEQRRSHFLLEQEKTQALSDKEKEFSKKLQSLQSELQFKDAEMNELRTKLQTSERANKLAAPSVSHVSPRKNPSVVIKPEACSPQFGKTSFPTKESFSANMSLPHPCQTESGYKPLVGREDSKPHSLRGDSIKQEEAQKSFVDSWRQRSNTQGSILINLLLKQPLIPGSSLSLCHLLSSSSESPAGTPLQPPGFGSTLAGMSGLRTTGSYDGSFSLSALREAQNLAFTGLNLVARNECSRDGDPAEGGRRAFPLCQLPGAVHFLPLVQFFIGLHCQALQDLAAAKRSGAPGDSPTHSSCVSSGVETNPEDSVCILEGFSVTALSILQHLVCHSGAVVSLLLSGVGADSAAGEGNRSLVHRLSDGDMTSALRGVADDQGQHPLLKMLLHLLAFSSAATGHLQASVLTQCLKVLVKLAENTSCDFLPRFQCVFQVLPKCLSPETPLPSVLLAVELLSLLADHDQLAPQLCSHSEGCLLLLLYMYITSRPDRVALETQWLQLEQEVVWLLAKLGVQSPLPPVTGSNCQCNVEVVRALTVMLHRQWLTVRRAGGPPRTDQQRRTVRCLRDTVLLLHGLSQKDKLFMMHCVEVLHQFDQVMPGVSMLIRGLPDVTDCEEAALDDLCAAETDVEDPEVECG

Row | pIC50 [1, 2] | Compound | further results
1 | – | Cc1ccncc1-c1cc(N2CCOC[C@H]2C)nc2c1ccn2-c1cc[nH]n1 [Compound 9] | pIC50 (ATR/ATRIP): 6.43
2 | – | C[C@@H]1COCCN1c1cc(-c2nncs2)c2cnn(-c3cc[nH]n3)c2n1 [Compound 33] | pIC50 (ATR/ATRIP): 6.81
3 | – | CC(C#N)c1cc(N2CCOC[C@H]2C)nc2c1cnn2-c1cc[nH]n1 (some centres unmarked) [Compound 47] | pIC50 (ATR/ATRIP; read-out: ATR IC50, recombinant ATR/ATRIP 0.63 nM, 25 nM GST-p53, 3 μM ATP, 1 hour room temperature): 7.92
4 | 9.05 | C[C@@H]1COCCN1c1cc([C@]2(O)C[C@H]3CC[C@@H](C2)O3)c2cnn(-c3cc[nH]n3)c2n1 [Compound 121] | –
5 | 7.77 | C[C@@H]1COCCN1c1cc(-c2ccccc2S(N)(=O)=O)c2cnn(-c3cc[nH]n3)c2n1 [Compound 126, (R)-2-(6-(3-methylmorpholino)-1-(1H-pyrazol-3-yl)-1H-pyrazolo[3,4-b]pyridin-4-yl)benzenesulfonamide] | –
6 | 7.39 | C[C@@H]1COCCN1c1cc(N2CCOCC2=O)c2cnn(-c3cc[nH]n3)c2n1 [Compound 134] | –
7 | 9.10 | COC1(c2cc(N3CCOC[C@H]3C)nc3c2cnn3-c2cc[nH]n2)CCSCC1 [Compound 147] | –
8 | – | C[C@@H]1COCCN1c1cc(-c2cccnc2C(F)(F)F)c2c(=O)[nH]n(-c3ccn[nH]3)c2n1 [Compound 151] | pIC50 ([1]; gemcitabine […]): 8.04
